Data reported in patent US10561629B2, “Food containing glycine and use thereof” (AJINOMOTO CO., INC., priority 2004, dated 2020).
Where two headings read alike, the source gives them in different places.

Tests used:
[1] = one participant, 1.0-1.5 g tablet glycine, trip to East Coast USA, vs previous similar trips
Source text: In the Figure, glycine (substantially pure tablet glycine containing only excipient and flavor) was taken at the time point marked with an arrow, wherein 1.0 g was taken on “June 20” and “June 21” and 1.5 g was taken on “June 22”-“June 26” and “June 29”.

[2] = for Heavy sleepiness (1 pm to 5 pm next afternoon) / Mild sleepiness (1 pm to 5 pm next afternoon) / No sleepiness (1 pm to 5 pm next afternoon): intake of glycine 1.5 g before sleep
Source text: Three test participants (test participants A-C, body weight 64-74 kg) who were then visiting the U.S. for 5 days took glycine (1.5 g, substantially pure tablet glycine containing only excipient and flavor) before sleep and evaluated the sleepiness felt from 1 pm to 5 pm the next afternoon in 3 levels as compared to the absence of glycine.

[3] = 3 g before bed
Procedure: The test participant (body weight 45 kg) took, before going to bed, 3 g of glycine directly or upon addition to various foods (see, Table 3). The content (amount based on amino acid) of an amino acid other than glycine or a substance that can be hydrolyzed to give an amino acid other than glycine in these foods was generally 0 to 4 g. As compared to free of glycine intake, easiness of falling asleep and realization of deep sleep upon waking the next morning were recorded and summarized in Table 3.

[4] = beagles, oral 30 or 300 mg/kg
Procedure: Glycine (substantially pure glycine powder) was administered at 0, 30, or 300 mg/kg (0 mg/kg for control, CTRL) to beagles, and using the beagles, the R-R interval in electrocardiogram was measured by a telemetry system as an index of sympathetic activity. The measurement was conducted in the night after glycine administration. From the R-R interval after oral administration of glycine, moreover, sympathetic activity ((low frequency component LF)/(high frequency component HF)) and parasympathetic activity (high frequency component HF) were examined by power spectrum analysis.

[5] = test participant A, in water before bed
Source text: The test participant A (body weight 45 kg) took glycine (substantially pure powder) in an amount shown in Table 6 before going to bed by dissolving same in water, and recorded the level of realization of deep sleep. When the realization of deep sleep increased than usual, “+” was marked, when the realization of deep sleep was almost the same as usual, “±” was marked and when it became worse, “−” was marked.

[6] = for mental condition on waking: improved in comparison with placebo / mental condition on waking: no change in comparison with placebo / mental condition on waking: worsened in comparison with placebo / physical condition on waking: improved in comparison with placebo / physical condition on waking: no change in comparison with placebo / physical condition on waking: worsened in comparison with placebo: 3 g 1 hr before bedtime
Procedure: A double-blind crossover test aiming at confirmation of the effect of glycine on sleep was performed with 15 female adults (20s-50s, body weight 46-58 kg). The test participants took glycine (granule containing citric acid and the like) in an amount equivalent to 3 g of glycine 1 hr before bedtime, and reduced maltose containing components other than glycine (citric acid and the like) and adjusted to an almost indistinguishable taste was used as a placebo. For the test, glycine and placebo were each taken for 4 days with an interval of a 3 day non-intake period, totaling 2 weeks.
In the Table, the values of glycine and placebo show the test participant average of the points of evaluation in 8 levels in the sleep questionnaire “depth of sleep”. […] In addition, the p value is a statistical value showing the probability when the difference between glycine and placebo was hypothesized to be null. Particularly, this value of 0.05 or below is considered to indicate a significant difference.
(4) At the end of each 1 week test period, a question was asked about the soundness of sleep.

[7] = 3 g 1 hr before bedtime
Procedure: (§1) A double-blind crossover test aiming at confirmation of the effect of glycine on sleep was performed with 14 male adults (body weight 64-112.5 kg, average 81.2 kg) concerned about snoring and apnea condition during sleep. The test participants took glycine (granules containing citric acid and the like) in an amount equivalent to 3 g of glycine 1 hr before bedtime, and reduced maltose containing components other than glycine (citric acid and the like) and adjusted to an almost indistinguishable taste was used as a placebo.
(1) For the evaluation of sleep condition, overnight polysomnography was used for the measurement.
(§2) In addition, the sleep condition of the night before was examined on waking using the sleep questionnaire.

[8] = Procedure: as §1, §2
[9] = intake at 0.1 g per day; cited from earlier work
[10] = addition to Japanese tea, 10 days of testing
[11] = addition to herb tea, 5 days of testing
[12] = addition to hot milk, 4 days of testing
[13] = addition to hot water or water, 14 days of testing
[14] = addition to yoghurt, 7 days of testing
[15] = participants 32 years old or older (6)
[16] = participants with PSQI not less than 9 (7)
[17] = SAM lassitude check list, 4-day total, difference by 1 point or more vs placebo, 15 participants
[18] = SAM lassitude check list, 4-day total, difference by 4 points or more vs placebo, 15 participants
[19] = out of 15 participants, end of each 1 week test period
[20] = participants 32 years old or older

SMILES: NCC(=O)O [glycine, Glycine]
- arousal during sleep [1]: reduced or eliminated arousal during sleep
- sleepiness during the next daytime ([2]; all three test participants, 1.5 g before sleep, compared to absence of glycine): felt a lower level of sleepiness
- Heavy sleepiness (1 pm to 5 pm next afternoon) ([2]; test participant A): 0 days
- Mild sleepiness (1 pm to 5 pm next afternoon) ([2]; test participant A): 2 days
- No sleepiness (1 pm to 5 pm next afternoon) ([2]; test participant A): 2 days
- Heavy sleepiness (1 pm to 5 pm next afternoon) ([2]; test participant B): 0 days
- Mild sleepiness (1 pm to 5 pm next afternoon) ([2]; test participant B): 1 days
- No sleepiness (1 pm to 5 pm next afternoon) ([2]; test participant B): 2 days
- Heavy sleepiness (1 pm to 5 pm next afternoon) ([2]; test participant C): 0 days
- Mild sleepiness (1 pm to 5 pm next afternoon) ([2]; test participant C): 0 days
- No sleepiness (1 pm to 5 pm next afternoon) ([2]; test participant C): 1 days
- Improved easiness of falling asleep [3, 10]: 9 days
- Improved realization of deep sleep [3, 10]: 10 days
- Improved easiness of falling asleep [3, 11]: 5 days
- Improved realization of deep sleep [3, 11]: 5 days
- Improved easiness of falling asleep [3, 12]: 4 days
- Improved realization of deep sleep [3, 12]: 4 days
- Improved easiness of falling asleep [3, 13]: 14 days
- Improved realization of deep sleep [3, 13]: 14 days
- Improved easiness of falling asleep [3, 14]: 7 days
- Improved realization of deep sleep [3, 14]: 7 days
- Improved easiness of falling asleep ([3]; powder, 3 days of testing): 3 days
- Improved realization of deep sleep ([3]; powder, 3 days of testing): 3 days
- R-R interval in electrocardiogram ([4]; 1-4 hr after administration, compared to control): increased
- parasympathetic activity (high frequency component HF) ([4]; power spectrum analysis of R-R interval): dominant
- Realization of deep sleep ([5]; 1/1 teaspoon, general amount 2.5 g): +
- Realization of deep sleep ([5]; ¼ teaspoon, general amount 0.6 g): +
- Realization of deep sleep ([5]; ½ teaspoon, general amount 1.2 g): +
- mental condition on waking: improved in comparison with placebo [6, 15]: 5 person
- mental condition on waking: no change in comparison with placebo [6, 15]: 1 person
- mental condition on waking: worsened in comparison with placebo [6, 15]: 0 person
- physical condition on waking: improved in comparison with placebo [6, 15]: 5 person
- physical condition on waking: no change in comparison with placebo [6, 15]: 1 person
- physical condition on waking: worsened in comparison with placebo [6, 15]: 0 person
- mental condition on waking: improved in comparison with placebo [6, 16]: 5 person
- mental condition on waking: no change in comparison with placebo [6, 16]: 2 person
- mental condition on waking: worsened in comparison with placebo [6, 16]: 0 person
- physical condition on waking: improved in comparison with placebo [6, 16]: 5 person
- physical condition on waking: no change in comparison with placebo [6, 16]: 1 person
- physical condition on waking: worsened in comparison with placebo [6, 16]: 1 person
- Increase of lassitude on waking, effective criterion [6, 17]: 3 participants
- No change of lassitude on waking, effective criterion [6, 17]: 1 participants
- Reduction of lassitude on waking, effective [6, 17]: 11 participants
- Increase of lassitude on waking, remarkably effective criterion [6, 18]: 2 participants
- No change of lassitude on waking, remarkably effective criterion [6, 18]: 6 participants
- Reduction of lassitude on waking, remarkably effective [6, 18]: 7 participants
- Sleep questionnaire "depth of sleep" ([6]; average points, 8 levels, participants 32 years old or older, placebo 4.13, P value 0.042): 4.88
- soundness of sleep: participants answering that both were the same [6, 19]: 8 participants
- soundness of sleep: participants answering the week of glycine intake was fine [6, 19]: 6 participants
- soundness of sleep: participants answering the week of placebo intake was fine [6, 19]: one
- Effect of clearing head the next morning: effective in comparison with placebo [6, 20]: 5 person
- Effect of clearing head the next morning: no change in comparison with placebo [6, 20]: 1 person
- Effect of clearing head the next morning: worsened in comparison with placebo [6, 20]: 0 person
- slow wave sleep (%) in sleep onset initial stage ([7]; early stage (1 hr) of sleep onset, placebo 6.4, p value 0.020): 12.0%
- lights-out - sleep onset ([7]; placebo 16.3, p value 0.322): 13.3 min
- lights-out - slow wave sleep ([7]; placebo 103.4, p value 0.042): 52.2 min
- OSA sleep questionnaire point value, time of dozing off ([8]; participant average of 4 levels (0, 11, 19, 30 points), higher = shorter dozing, placebo 19.6): 24.9
- OSA sleep questionnaire point value, depth of sleep ([8]; participant average of 4 levels (0, 11, 21, 32 points), higher = deeper, placebo 12.3): 16.7
- memory and attention [9]: increases memory and attention
